This is an account of results in patent US9181309B1, “Peptide regulation of maize defense responses” (The United States of America, as represented by the …, priority 2011, dated 2015).

One assay deals with maize leaf transcripts. Kind of assay: Microarray analysis of transcript levels in ZmPep3 vs water-treated leaves. It is filed as in vivo, Zea mays. The note with it: leaves treated for 12 h. From the text: The gene transcripts shown in FIG. 4 are a subset of the defense-related genes found to be induced by ZmPEP3 peptide in the excised leaf assays. Including these, a total of twenty genes have been identified as ZmPEP3-responsive. All can be classified as pertaining to four broad categories of defense-related genes; those encoding proteins that are directly antimicrobial, those encoding proteins that synthesize secondary metabolites associated with defense, those encoding proteins that are involved in reactive oxygen species-based signal transduction and detoxification, and those that encode biosynthetic proteins for the two main plant small molecule hormone regulators of defense, ethylene and oxylipins. To obtain a more global perspective of gene expression regulated by ZmPEP3, a microarray experiment was performed to compare expression levels in ZmPEP3 vs. water-treated leaves after […]. […] In FIG. 7, real-time quantification of expression levels of genes associated with direct and indirect herbivore defenses confirms that ZmPEP3 is a strong regulator of both defense responses. […] FIG. 8 lists defense-associated genes discovered to be induced by the ZmPEP3.
A microarray analysis of transcript levels in leaves that were treated for 12 h with either water or ZmPep3 was employed to better characterize the breadth of ZmPep3-regulated responses. […]

The test system of assay [1] is jasmonic acid and ethylene production in maize leaves. Kind of assay: Phytohormone (JA, ET) production in treated leaves. It counts as in vivo, Zea mays. The text has this: A further embodiment is ZmPEP3 regulated production of defense-related metabolites. The elicitor-induced phytohormones JA and ethylene (ET) function as signals integral to initiation of protective responses against pathogens and herbivores (Howe and Jander, Annu Rev Plant Biol. 59:41, 2008).

The subject of assay [2] is defense metabolites in maize leaves. Briefly: Accumulation of defense metabolites within treated leaves (internal pools). It counts as in vivo, Zea mays. From the text:
Induced terpene production is vital to anti-herbivore defenses in many plant species (Unsicker et al., Curr Opin Plant Biol. 12:479, 2009; Tholl, Curr Opin Plant Biol. 9:297, 2006; Keeling and Bohlmann, New Phytol 170:657, 2006). […] Expression of genes encoding the relevant biosynthetic enzymes, Anthranilic Acid Methyl Transferase 1 (AAMT1) and Indole-Glycerol Phosphate Lyase (IGL) were induced by both peptide and the insect elicitor ([…]., Plant Physiol 153:1795, 2010; Frey et al., Proc Natl Acad Sci USA. 97:14801, 2000). In addition to proteinaceous defenses, maize benzoxazinoids contribute to direct defenses against both herbivores and pathogens ([…] Agric Food Chem 57:1677, 2009). […] Oikawa et al., Phytochemistry. 56:669, 2001; Huffaker et al., Plant Physiol. 155:1325, 2011). […] It is hypothesized that simultaneous activation of both IGL and BX1 by ZmPep3 results in increased flux through the benzoxazinoid pathway to produce HDMBOA-Glc.

Another assay has as its system Cotesia marginiventris. Briefly: Olfactometer assay of parasitoid wasp attraction to pretreated leaves. It is filed as in vivo. From the text: The generalist parasitoid Cotesia marginiventris attacks many Lepidopteran species including S. exigua and is attracted to herbivory-induced maize volatiles (Turlings et al., Science 250:1251, 1990). Precisely which components are attractive has been difficult to determine, and the wasps respond strongly to unidentified minor components when subjected to gas chromatograph-coupled electroantennography (Gouinguene et al., J Chem Ecol. 31:1023, 2005). To determine whether the ZmPep3-induced blend was attractive to naïve C. marginiventris, olfactometer assays were conducted with leaves pretreated with ZmPep3, Gln-18:3 or water for 16 h. To ensure that any preference was due to elicited plant responses and not to an inherent attraction or repellence to any treatment substance, leaves treated at time of assay were used as controls. […] Thus, ZmPep3-regulated responses are sufficient to generate effective indirect defenses against Lepidopteran herbivores.

In the next assay the test system is S. exigua. Briefly: Larval growth on peptide-pretreated leaves. It is filed as in vivo, Spodoptera exigua. Conditions: compared to untreated or water-treated leaves. On the procedure:
To assess the role of ZmPep3-induced direct defenses, S. exigua growth on peptide-pretreated leaves was evaluated. […] This effect was expected given the potency of ZmPep3-induced proteins and benzoxazinoids against herbivores.

Assay [3] deals with herbivore defense genes in maize leaves. Kind of assay: Real time qPCR / qRT-PCR of defense and phytohormone biosynthesis genes in treated leaves.
The mark [4] stands for this setting: equivalent molar concentrations.
[5] abbreviates: low equivalent quantities of elicitor.
The mark [6] stands for this setting: real-time quantification, peptide-treated leaves.

In the case of “ZmPEP3: 23 amino acid maize plant elicitor peptide TRTPPWPPCPPEEGSGGNGGSHN (SEQ ID NO: 3) (Zea mays)”, in the assay on maize leaf transcripts, the “BX1 and BX2 microarray probe sets” value was “upregulated”; the “SerPIN probe set in microarray” value is listed as “most highly upregulated probe set”. In assay [1] (ZmPEP3-treated leaves), the “jasmonic acid accumulation in leaves” value was “found to accumulate”. Besides, the “JA and ET increases, ZmPep3 compared to Gln-18:3” value in assay [1] (low equivalent quantities) was “greater magnitude and longer duration”. In assay [1] (low equivalent quantities of either elicitor), the “JA and ET synthesis” value was “elicitation of JA and ET synthesis”. Besides, in assay [2] (following treatment), the “anthranilate and indole in leaves” value is reported as “increased”. In assay [2] (in vivo), the HDMBOA-Glc accumulation entry was “increased accumulation”; the “anthranilate and indole accumulation, peptide vs Gln-18:3” value is “significantly greater accumulation”. Also, in assay [2] (measured prior to volatile collection), the “accumulation of terpenes in internal pools, ZmPep3 vs Gln-18:3” value is reported as “significantly greater accumulation of terpenes”. In addition, the “wasps attracted to ZmPep3-pretreated vs water-pretreated leaves” value with Cotesia marginiventris (16 h pretreatment) is reported as “more wasps were attracted”. The “wasp preference for leaves pretreated 16 h vs leaves treated at time of assay” value in the assay with Cotesia marginiventris (naive C. marginiventris) is “strongly preferred”. In the assay on S. exigua, the “less biomass gain of second instar larvae” value was determined as 40%. Besides, the “BX1 and BX2 expression by qRT-PCR” value in assay [3] (12 h post-treatment) is given as “expressed”. For the same substance, in assay [3] (setting [4]), the “TPS10 and TPS23 gene expression, ZmPep3 versus Gln-18:3” value is given as “more strongly induced”; the “expression of genes encoding Terpene Synthases (TPS) 10 and 23” value is given as “strongly activate expression”. In assay [3] (in vivo), the “SerPIN and WIP1 expression by qRT-PCR” value was “highly expressed”; the “expression of AAMT1 and IGL genes” value is “induced”. Also, in assay [3] (setting [5]), the “ACC Oxidase and AOC transcript, ZmPep3-treated compared to Gln-18:3-treated leaves” value was “greater quantities of transcript”; the “accumulation of transcripts for ACC Oxidase, Allene Oxide Synthase and Allene Oxide Cyclase” value is “significantly increased accumulation of transcripts”. In addition, in assay [3] (setting [6]), the “upregulation of genes encoding proteinase inhibitor proteins” value was “more than a thousand-fold” and the “upregulation of genes encoding terpene synthases” value is reported as “more than a thousand-fold”.
